Reference: patent US20210292347A1, “DIHETEROCYCLIC TRIAZINONE NUCLEOSIDE ANALOGS AND THEIR USE FOR MEDICATION” (priority 2020, published 2021)
≈ marks a conversion by molar mass, not a printed value. Like-named read-outs stand apart in the source and are kept apart here.

What was measured:
[1] = tested on: human colorectal cancer cell line HT29; test: cells; format: cell-based; conditions: for IC50: Homo sapiens, HT-29, MTT
Protocol: (§1) Cell lines: Human pancreatic cancer cell line Panc-1, human colorectal cancer cell line HT29, human lung cancer cell line NCI-H460 and human breast cancer cell line MCF7; the medium: s DMEM (Gibco BRL), containing 10% fetal calf serum (Gibco BRL) and 2 mM L-glutamine (Gibco BRL).
(§2) Test samples: example compounds 7, 15, 82, 89, 116 and 135. The samples were dissolved in dimethyl sulfoxide (DMSO, Sigma, United States) and medium was added to the final concentration of 0.5%. Cyclophosphamide ware as positive control (Aldrich, United States, purity>96%).
(§3) General Method: cells were digested with trypsin and dispersed into single cells in the medium containing penicillin (25 U/ml) and streptomycin (25 μg/mL). The cells were seeded in 96-well culture plates (Corning Incorporated), at 37° C., with 5% CO2 present for 24 hours. The culture medium was removed, […] test compounds were added, cultured for 48 hours. Culture medium was removed and […] (MTT, USA Sigma products) was added. The result was assayed by SK601-based microplate reader (Japan Seikagaku company's products), 570 nm/630 nm optical density (OD). Cell viability determined by the formula: (Experimental group OD/control OD)×100%; CTX and the positive control subjects treated in the same material simultaneously.

[2] = tested on: human lung cancer cell line NCI-H460; test: cells; format: cell-based; conditions: for IC50: Homo sapiens
Protocol: as §1, §2, §3

[3] = tested on: human breast cancer cell line MCF7; test: cells; format: cell-based
Protocol: as §1, §2, §3

[4] = tested on: Human pancreatic cancer cell line Panc-1; test: cells; format: cell-based; conditions: Homo sapiens, PANC-1; MTT, 48 hours; read-out: IC50 and 95% confidence limit, anti-proliferative effect on Panc-1
Protocol: as §1, §2, §3

mice sarcoma S180 = test: Growth inhibition of S180 sarcoma in mice; format: in vivo, Kunming healthy mice; conditions: for in-vivo anti-tumor efficacy, statistical significance (in words): S180 sarcoma in mice, doses and routes of Table 3
[5] = Mus musculus, S-180, mice, iv, read-out: Inhibition rate (%) S180 sarcoma
[6] = Mus musculus, S-180, mice, ip, read-out: Inhibition rate (%) S180 sarcoma
[7] = Mus musculus, S-180, mice, ip, 200 mg/kg, read-out: Inhibition rate (%) S180 sarcoma

CCOC(=O)c1nn(CO)c2c(=O)n(C3OC3CO)nnc12 (centres unmarked) [Example 7, ethyl 7-(hydroxymethyl)-2-(3-(hydroxymethyl)oxiran-2-yl)-1-oxo-2,7-dihydro-1H-pyrazolo[4,3-d][1,2,3]triazine-5-carboxylate]
IC50 ([1]; 48 hours, read-out: IC50 and 95% confidence limit, anti-proliferative effect on HT29): 18.8 µg/mL
IC50 ([1]; cultured for 48 hours, value (95% confidence limit), Table 2, read-out: IC50 Colorectal cancer HT-29): 18.8 µM
anti-proliferative effect on HT29 (in words) ([1]; colorectal cancer): relatively weak
IC50 ([2]; NCI-H460, MTT, 48 hours, unit inferred, read-out: IC50 and 95% confidence limits, NCI-H460 cells): 5.18 µM
IC50 ([2]; NCI-H460, MTT, cultured for 48 hours, value (95% confidence limit), Table 2, read-out: IC50 Lung cancer NCI-H460): 5.18 µM
inhibitory effect on NCI-H460 cells (in words) ([2]; lung cancer): more sensitive to NCI-H460 cells
IC50 ([3]; MCF7, MTT, 48 hours, unit inferred, read-out: IC50 with 95% confidence limits, MCF7 cells): 6.18 µM
IC50 ([3]; MCF7, MTT, cultured for 48 hours, value (95% confidence limit), Table 2, read-out: IC50 Breast cancer MCF7): 6.18 µM
IC50 [4]: 51.3 µg/mL (≈ 165 µM)

O=P1(N(CCCl)CCCl)NCCCO1 (centres unmarked) [CTX, Cyclophosphamide, reference compound]
IC50 ([2]; NCI-H460, 48 h, read-out: IC50 Lung cancer NCI-H460): 4.3 µM
IC50 ([2]; NCI-H460, 48 h, read-out: IC50 and 95% confidence limit, NCI-H460 cells): 4.3 µg/mL
IC50 ([3]; MCF7, 48 h, read-out: IC50 and 95% confidence limit, MCF7 cells): 0.92 µg/mL
inhibition in vivo at 15 mg/kg (mice sarcoma S180; [5]): < 40%

CN(C)CCC(=O)Nc1nn(C(N)=O)c2c(=O)n(C3CSC(CO)O3)nnc12 (centres unmarked) [Example 99, 7-(3-(dimethylamino)propanamido)-3-(2-(hydroxymethyl)-1,3-oxathiolan-5-yl)-4-oxo-3H-pyrazolo[4,3-d][1,2,3]triazine-5(4H)-carboxamide]
inhibition in vivo at 150 mg/kg (mice sarcoma S180; [6]): < 20%

CCCc1nn(O)c2c(=O)n(C3CCC(CO)O3)nnc12 (centres unmarked) [Example 79, 5-hydroxy-3-(5-(hydroxymethyl)tetrahydrofuran-2-yl)-7-propyl-3H-pyrazolo[4,3-d][1,2,3]triazin-4(5H)-one]
inhibition in vivo at 300 mg/kg (mice sarcoma S180; Mus musculus, S-180, mice, ip, 300 mg/kg, read-out: Inhibition rate (%) S180 sarcoma): < 20%

CCCc1nn(C)c2c(=O)n(C3OC(COC(C(=O)O)P(NC(C)C)OCC#N)C(O)C3O)nnc12 (centres unmarked) [Example 120, 2-((cyanomethoxy)(isopropylamino)phosphino)-2-((3,4-dihydroxy-5-(5-methyl-4-oxo-7-propyl-4,5-dihydro-3H-pyrazolo[4,3-d][1,2,3]triazin-3-yl)tetrahydrofuran-2-yl)methoxy)acetic acid]
inhibition in vivo at 12.5 mg/kg (mice sarcoma S180; Mus musculus, S-180, mice, iv, 12.5 mg/kg, read-out: Inhibition rate (%) S180 sarcoma): < 40%
in-vivo anti-tumor efficacy, statistical significance (in words) (mice sarcoma S180): statistically significant

CCCc1nn(C)c2c(=O)n(C3CCC(CO)O3)nnc12 (centres unmarked) [Example 80, 3-(5-(hydroxymethyl)tetrahydrofuran-2-yl)-5-methyl-7-propyl-3H-pyrazolo[4,3-d][1,2,3]triazin-4(5H)-one]
inhibition in vivo at 200 mg/kg (mice sarcoma S180; [7]): < 20%

CCCc1nn(C(N)=S)c2c(=O)n(C3OC(CO)C(O)C3O)nnc12 (centres unmarked) [Example 74, 3-(3,4-dihydroxy-5-(hydroxymethyl)tetrahydrofuran-2-yl)-4-oxo-7-propyl-3H-pyrazolo[4,3-d][1,2,3]triazine-5(4H)-carbothioamide]
inhibition in vivo at 200 mg/kg (mice sarcoma S180; [7]): < 40%
in-vivo anti-tumor efficacy, statistical significance (in words) (mice sarcoma S180): statistically significant

CCOC(=O)c1nn(C(N)=S)c2c(=O)n(C3OC(CO)C(O)C3O)nnc12 (centres unmarked) [Example 73, ethyl 5-carbamothioyl-3-(3,4-dihydroxy-5-(hydroxymethyl)tetrahydrofuran-2-yl)-4-oxo-4,5-dihydro-3H-pyrazolo[4,3-d][1,2,3]triazine-7-carboxylate]
inhibition in vivo at 200 mg/kg (mice sarcoma S180; [7]): < 40%
in-vivo anti-tumor efficacy, statistical significance (in words) (mice sarcoma S180): statistically significant

CCOC(=O)c1nn(CO)c2c(=O)n(C3OC(CO)C(O)C3O)nnc12 (centres unmarked) [Example 30, ethyl 3-(3,4-dihydroxy-5-(hydroxymethyl)tetrahydrofuran-2-yl)-5-(hydroxymethyl)-4-oxo-4,5-dihydro-3H-pyrazolo [4,3-d][1,2,3]triazine-7-carboxylate]
inhibition in vivo at 400 mg/kg (mice sarcoma S180; Mus musculus, S-180, mice, ip, 400 mg/kg, read-out: Inhibition rate (%) S180 sarcoma): < 40%
in-vivo anti-tumor efficacy, statistical significance (in words) (mice sarcoma S180): statistically significant

CCCc1nn(C(N)=S)c2c(=O)n(C3CCC(CO)O3)nnc12 (centres unmarked) [Example 86, 3-(5-(hydroxymethyl)tetrahydrofuran-2-yl)-4-oxo-7-propyl-3H-pyrazolo[4,3-d][1,2,3]triazine-5(4H)-carbothioamide]
inhibition in vivo at 200 mg/kg (mice sarcoma S180; [7]): < 20%

CCCc1nn(C(=N)N)c2c(=O)n(C3CSC(CO)O3)nnc12 (centres unmarked) [Example 100, 3-(2-(hydroxymethyl)-1,3-oxathiolan-5-yl)-4-oxo-7-propyl-3H-pyrazolo[4,3-d][1,2,3]triazine-5(4H)-carboximidamide]
inhibition in vivo at 100 mg/kg (mice sarcoma S180; [6]): < 40%
in-vivo anti-tumor efficacy, statistical significance (in words) (mice sarcoma S180): statistically significant

Nc1nn(CO)c2c(=O)n(C3OC(CO)C(O)C3O)nnc12 (centres unmarked) [Example 32, 7-amino-3-(3,4-dihydroxy-5-(hydroxymethyl)tetrahydrofuran-2-yl)-5-(hydroxymethyl)-3H-pyrazolo [4,3-d][1,2,3]triazin-4(5H)-one]
inhibition in vivo at 30 mg/kg (mice sarcoma S180; Mus musculus, S-180, mice, iv, 30 mg/kg, read-out: Inhibition rate (%) S180 sarcoma): < 40%
in-vivo anti-tumor efficacy, statistical significance (in words) (mice sarcoma S180): statistically significant

CCOC(=O)c1nn(C)c2c(=O)n(C3OC(CO)C(O)C3O)nnc12 (centres unmarked) [Example 22, ethyl 3-(3,4-dihydroxy-5-(hydroxymethyl)tetrahydrofuran-2-yl)-5-methyl-4-oxo-4,5-dihydro-3H-pyrazolo[4,3-d][1,2,3]triazine-7-carboxylate]
inhibition in vivo at 200 mg/kg (mice sarcoma S180; [7]): < 40%
in-vivo anti-tumor efficacy, statistical significance (in words) (mice sarcoma S180): statistically significant

CCOP(=O)(OCC)C(C(=O)O)n1nc(N)c2nnn(C3CCC(CO)O3)c(=O)c21 (centres unmarked) [Example 83, 2-(7-amino-3-(5-(hydroxymethyl)tetrahydrofuran-2-yl)-4-oxo-3H-pyrazolo[4,3-d][1,2,3]triazin-5(4H)-yl)-2-(diethoxyphosphoryl)acetic acid]
inhibition in vivo at 20 mg/kg (mice sarcoma S180; Mus musculus, S-180, mice, iv, 20 mg/kg, read-out: Inhibition rate (%) S180 sarcoma): < 20%

CN(C)CCC(=O)Nc1nn(C)c2c(=O)n(C3OC(CO)C(O)C3O)nnc12 (centres unmarked) [Example 25, N-(3-(3,4-dihydroxy-5-(hydroxymethyl)tetrahydrofuran-2-yl)-5-methyl-4-oxo-4,5-dihydro-3H-pyrazolo[4,3-d][1,2,3]triazin-7-yl)-3-(dimethylamino) propanamide]
in-vivo anti-tumor efficacy, statistical significance (in words) (mice sarcoma S180): statistically significant
Inhibition rate (%) S180 sarcoma (mice sarcoma S180; mice, ip, 200 mg/kg): ++ (++ represent of Inhibition rate % <40)

CCCn1nnc2c(=O)n(C3CCC(COC(C(=O)O)P(=O)(NC(C)C)NC(C)C)O3)nnc21 (centres unmarked) [Example 154, 2-(bis(isopropylamino)phosphoryl)-2-((5-(7-oxo-3-propyl-3H-[1,2,3]triazolo[4,5-d][1,2,3]triazin-6(7H)-yl)tetrahydrofuran-2-yl)methoxy)acetic acid]
inhibition in vivo at 100 mg/kg (mice sarcoma S180; [6]): < 20%

NC(=O)Cn1nc(N)c2nnn(C3OC(CO)C(O)C3O)c(=O)c21 (centres unmarked) [Example 50, 2-(7-amino-3-(3,4-dihydroxy-5-(hydroxymethyl)tetrahydrofuran-2-yl)-4-oxo-3H-pyrazolo[4,3-d][1,2,3]triazin-5(4H)-yl)acetamide]
inhibition in vivo at 15 mg/kg (mice sarcoma S180; [5]): < 40%
in-vivo anti-tumor efficacy, statistical significance (in words) (mice sarcoma S180): statistically significant

NC(=O)Cn1nc([N+](=O)[O-])c2nnn(C3OC(CO)C(O)C3O)c(=O)c21 (centres unmarked) [Example 54, 2-(3-(3,4-dihydroxy-5-(hydroxymethyl)tetrahydrofuran-2-yl)-7-nitro-4-oxo-3H-pyrazolo [4,3-d][1,2,3]triazin-5(4H)-yl)acetamide]
inhibition in vivo at 150 mg/kg (mice sarcoma S180; [6]): < 40%
in-vivo anti-tumor efficacy, statistical significance (in words) (mice sarcoma S180): statistically significant

CCCc1nn(O)c2c(=O)n(C3OC(COC(C(=O)O)P(NC(C)C)OCC#N)C(O)C3O)nnc12 (centres unmarked) [Example 117, 2-((cyanomethoxy)(isopropylamino)phosphino)-2-((3,4-dihydroxy-5-(5-hydroxy-4-oxo-7-propyl-4,5-dihydro-3H-pyrazolo [4,3-d][1,2,3]triazin-3-yl)tetrahydrofuran-2-yl)methoxy)acetic acid]
inhibition in vivo at 15 mg/kg (mice sarcoma S180; [5]): < 40%
in-vivo anti-tumor efficacy, statistical significance (in words) (mice sarcoma S180): statistically significant
